Data set [1] has as its target Human immunodeficiency virus type 1 protease (Human immunodeficiency virus 1) (UniProt Q72874). The data set can be described thus: Inhibition of HIV-1 protease at 10 ug/ml by fluorescence based plate reader assay relative to control. As to conditions: dose 10.0 µg/ml.
A short description of data set [2]: Cytotoxicity against human FM55M1 cells assessed as reduction in cell viability measured upto 50 uM incubated for 72 hrs by cell titre 96 reagent based plate reader analysis. The data set is classed as toxicity. Particulars: fm55m1, 72 h.
For data set [3], the system named is Human immunodeficiency virus 1. The data set can be described thus: Anti-retroviral activity against HIV-1 IIIB infected in human MT4 cells assessed as inhibition of viral replication and measured after 5 days by MTT assay. The data set is classed as functional, organism-based. Particulars: Human immunodeficiency virus 1, IIIB, MT4, 120 h.
Data set [4] in a line: Cytotoxicity against human MT4 cells and measured after 5 days by MTT assay. The data set is classed as toxicity, cell-based. (Tetrazolium assays rely on reduction of a dye to a coloured formazan, in cell work by metabolically active cells.)

In general, inhibition refers to the percentage by which the read-out fell short of the control. The low end stands for a weak effect, the high end for a strong effect. A word on the IC50: it is the point on the concentration scale where inhibition reaches its midpoint. Compound `C=C1CC[C@@H]2OC(=O)C(C)=C2[C@@H]2[C@@H]1[C@@]13O[C@@]1([C@@H](Cl)[C@@H](C)[C@H]3OC(C)=O)[C@@H](O)[C@@]2(C)O` yielded an inhibition in data set [1] of 63%. The Activity entry in data set [2] is on record as “Non-Toxic”. Also, the concentration for half-maximal inhibition (IC50) in data set [3] was 0.028 µM. The IC50 at 5 days in data set [4] amounted to 209 µM.

`C=C1CC[C@]2(O)OC(=O)C(C)=C2[C@@H]2[C@@H]1[C@@]13O[C@@]1(C[C@@H](C)[C@H]3O)[C@H]1O[C@@]21C`: the inhibition in data set [1] is 75%. Also, in data set [2], the Activity result is given as “Non-Toxic”. The IC50 in data set [3] was 0.0055 µM. The IC50 at 5 days in data set [4] was found to be 510 µM.
